# From PMC3763632, “Radiosynthesis and Radiotracer Properties of a 7-(2-[^18F]Fluoroethoxy)-6-methoxypyrrolidinylquinazoline for Imaging of Phosphodiesterase 10A with PET” (Pharmaceuticals, 2012)
# Experiment: Radioligand stability in vivo (metabolism in brain, plasma, urine)
# Design: species or system CD-1 mice
# Conditions: mice
# Description: The metabolic fate of [^18F]IV was investigated in brain, plasma and urine samples of CD1-mice at 30 and 60 min p.i. Proteins were precipitated with acetonitrile and extraction efficiencies of 96.4% for brain homogenate, 90.2% for plasma and 89.4% for urine were obtained, indicating sufficient recovery rates. The supernatants of each material were analyzed by radio-TLC and analytical radio-HPLC, whereof two representative chromatograms are given in Figure 4.
# A single lipophilic metabolite was detected representing only 4.2% of total radioactivity at 60 min p.i. Therefore a major impairment of the imaging properties of [^18F]IV in vivo should not be expected. The same radiometabolite was detected in plasma with 23.5% and 22.0% of the total radioactivity at 30 and 60 min p.i., while the parent radiotracer [^18F]IV accounted for 69.5% and 70.1%, respectively.
# In urine the metabolic profile is distinctly different. While the non-metabolized [^18F]IV and the single plasma- and brain-related radiometabolite accounted for only ~1% of the total radioactivity in urine, further radiometabolites were detected. The main three of them represent 11%, 12% and 44% of the total radioactivity. In contrast to brain and plasma samples, in urine free [^18F]fluoride could be detected, although at a low level of only ~5% of total radioactivity.
# After injection via the tail vein of ~150 MBq of [^18F]IV in […] isotonic solution, mice were sacrificed at 30 or 60 min p.i. (n = 2 per time). Urine and blood samples were obtained, and whole brains were isolated and homogenized in 50 mM TRIS-HCl, pH 7.4/4 °C, in a borosilicate glass cylinder by 10 strokes of a PTFE plunge at a speed of 1,000 rpm using a Potter S Homogenizer (B. Braun Melsungen AG, Germany). Plasma samples were obtained by centrifugation of blood at 2,000 g and 4 °C for 10 min. Extractions of brain homogenate, plasma and urine samples were done by treatment with ice-old acetonitrile (1:5 v/v; 2 min vortex mixing, Vortex-Genie 2, Scientific Industries Inc., NY, USA; 10 min incubation on ice) and centrifugation (6,000 rpm, 4 °C, 5 min; EBA 12R, Andreas Hettich GmbH & Co. KG, Tuttlingen, Germany). The supernatants were stored separately. Sediments of brain and plasma samples were re-suspended in 500 μL ice-cold acetonitrile and extraction was repeated. Supernatants of each specimen were combined and slowly evaporated at 70 °C under nitrogen stream. […]
structure (smiles),measurement,setting,value
"COc1cc2c(N3CC[C@@H](Oc4cnc5ccccc5n4)C3)ncnc2cc1OCC[18F] [[^18F]IV, (R)-7-(2-[^18F]Fluoroethoxy)-6-methoxy-4-(3-(quinoxalin-2-yloxy)pyrrolidin-1-yl)quinazoline]","parent [18F]IV, share of total radioactivity","brain, 30 min p.i.",94.3%
same,"parent [18F]IV, share of total radioactivity","brain, 60 min p.i.",93.1%
same,"parent [18F]IV, share of total radioactivity","plasma, 30 min p.i.",69.5%
same,"parent [18F]IV, share of total radioactivity","plasma, 60 min p.i.",70.1%
